Results: patent publication US20100324124A1, “Compositions and methods relating to DNA-based particles” (Massachusetts Institute of Technology, priority 2009, published 2010)

System: B16F10 melanoma tumors
Assay: In vivo treatment of established B16F10 melanoma tumors, single intratumoral injection
Conditions: 100 μg DOX, C57B1/6 mice
Description: FIG. 7 illustrates in vivo tumor regression mediated by doxobucin-loaded nanoparticles. 5×10^6 Gaussia-luciferase-expressing B16F10 melanoma cells were subcutaneously injected into left flank of C57B1/6 mice. Tumors were allowed to establish and grow to ˜0.5 cm in diameter, and mice were divided randomly into groups of 8 per condition: group 1, no treatment (PBS); group 2, treated with free doxorubicin (100 μg DOX); group 3, treated with doxorubicin-imbedded liposome (100 μg DOX); and group 4, treated with doxorubicin-imbedded nucleic acid nanoparticle (100 μg DOX). Treatments were administered by intratumoral injection in 250 μl volumes. Tumors were measured every day with calipers in two dimensions. Tumor growth curves are plotted as the mean tumor area±standard deviation. Shown at bottom left is bioluminescence imaging of a mouse with an untreated tumor (left) and a mouse that received an injection of doxorubicin-imbedded nucleic acid nanoparticles (right). Animals were sacrificed after the last measurement and the tumors were excised and fixed for histology section. […]

SMILES: COc1cccc2c1C(=O)c1c(O)c3c(c(O)c1C2=O)C[C@@](O)(C(=O)CO)C[C@@H]3O[C@H]1C[C@H](N)[C@H](O)[C@H](C)O1 [free doxorubicin, Doxorubicin]
- effect on tumor growth relative to saline-injected control animals: no effect on tumor growth
